Assay results published in ChEMBL document CHEMBL5465560, “Selectivity Literature for EUbOPEN Chemogenomic Library” (2024).

What was measured:
[1] = target: T1, Myosin light chain kinase family member 4 (Homo sapiens) (UniProt Q86YV6); assay: Selectivity interaction (LanthaScreen Eu Kinase Binding Assay) EUB0001632a MYLK4; conditions: at 10 µM
T1 sequence (whole entry): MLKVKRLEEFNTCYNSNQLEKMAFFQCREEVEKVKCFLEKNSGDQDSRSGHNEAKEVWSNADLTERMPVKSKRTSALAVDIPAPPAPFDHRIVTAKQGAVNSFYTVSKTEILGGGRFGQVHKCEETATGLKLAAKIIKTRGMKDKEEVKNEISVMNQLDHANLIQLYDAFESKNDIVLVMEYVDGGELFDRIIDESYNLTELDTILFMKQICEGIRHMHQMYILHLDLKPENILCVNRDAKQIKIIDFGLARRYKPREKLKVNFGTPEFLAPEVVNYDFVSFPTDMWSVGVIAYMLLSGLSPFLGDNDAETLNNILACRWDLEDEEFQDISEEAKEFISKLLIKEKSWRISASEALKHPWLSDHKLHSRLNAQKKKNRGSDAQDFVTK

[2] = target: T2, cAMP-dependent protein kinase catalytic subunit PRKX (Homo sapiens) (UniProt P51817); assay: Selectivity interaction (Kinase panel (Z-LYTE Assay)) EUB0001632a PRKX; conditions: at 10 µM
T2 sequence (whole entry): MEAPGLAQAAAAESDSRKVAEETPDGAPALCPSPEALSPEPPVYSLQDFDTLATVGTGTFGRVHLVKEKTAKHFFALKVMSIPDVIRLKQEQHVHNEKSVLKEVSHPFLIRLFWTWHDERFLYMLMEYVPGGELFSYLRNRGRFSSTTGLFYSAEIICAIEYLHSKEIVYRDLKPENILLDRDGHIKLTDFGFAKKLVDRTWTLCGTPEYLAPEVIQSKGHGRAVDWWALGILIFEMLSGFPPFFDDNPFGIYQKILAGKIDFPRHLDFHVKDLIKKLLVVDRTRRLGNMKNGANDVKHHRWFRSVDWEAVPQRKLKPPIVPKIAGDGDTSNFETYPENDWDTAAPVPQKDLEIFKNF

[3] = target: Cyclin-dependent kinase 15 (Homo sapiens) (UniProt Q96Q40); conditions: at 10 µM
Sequence of Cyclin-dependent kinase 15 (Homo sapiens) (Q96Q40 whole entry): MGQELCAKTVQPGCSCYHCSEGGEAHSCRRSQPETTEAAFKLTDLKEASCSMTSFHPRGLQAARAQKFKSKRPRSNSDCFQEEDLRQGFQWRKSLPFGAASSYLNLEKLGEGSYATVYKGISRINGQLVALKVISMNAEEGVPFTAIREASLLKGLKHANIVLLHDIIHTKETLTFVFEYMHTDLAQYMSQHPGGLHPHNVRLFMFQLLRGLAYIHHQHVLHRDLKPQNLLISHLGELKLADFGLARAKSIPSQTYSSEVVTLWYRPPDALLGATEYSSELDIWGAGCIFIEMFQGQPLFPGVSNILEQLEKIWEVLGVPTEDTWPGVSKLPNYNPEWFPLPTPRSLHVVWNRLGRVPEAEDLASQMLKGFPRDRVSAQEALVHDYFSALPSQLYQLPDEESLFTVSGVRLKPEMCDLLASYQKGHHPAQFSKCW

[4] = target: Interleukin-1 receptor-associated kinase 1 (Homo sapiens) (UniProt P51617); conditions: at 10 µM
[5] = target: T3, Mitogen-activated protein kinase kinase kinase 7 (Homo sapiens) (UniProt O43318); assay: Selectivity interaction (KinomeScan (DiscoverX)) EUB0001049a MAP3K7; conditions: at 1 µM
T3 sequence (whole entry): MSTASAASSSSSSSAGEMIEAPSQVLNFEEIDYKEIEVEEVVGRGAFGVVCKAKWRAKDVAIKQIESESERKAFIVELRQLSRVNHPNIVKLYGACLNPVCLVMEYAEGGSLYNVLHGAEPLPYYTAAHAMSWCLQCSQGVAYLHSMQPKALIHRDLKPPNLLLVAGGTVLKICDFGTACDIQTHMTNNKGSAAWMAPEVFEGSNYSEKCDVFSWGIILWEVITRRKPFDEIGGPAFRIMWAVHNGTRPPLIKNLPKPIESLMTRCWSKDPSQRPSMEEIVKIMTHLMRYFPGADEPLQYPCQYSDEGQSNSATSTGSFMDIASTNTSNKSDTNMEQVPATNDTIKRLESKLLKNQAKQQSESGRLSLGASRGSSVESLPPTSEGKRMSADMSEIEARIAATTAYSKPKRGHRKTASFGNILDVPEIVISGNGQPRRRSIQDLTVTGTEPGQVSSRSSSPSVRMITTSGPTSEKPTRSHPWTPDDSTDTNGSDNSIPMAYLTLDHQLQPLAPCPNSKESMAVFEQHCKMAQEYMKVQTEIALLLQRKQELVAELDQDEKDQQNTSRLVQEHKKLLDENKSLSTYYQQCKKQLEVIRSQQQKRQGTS

[6] = target: High affinity nerve growth factor receptor (Homo sapiens, UniProt P04629); assay: Selectivity interaction (KinomeScan (DiscoverX)) EUB0001049a NTRK1; conditions: at 1 µM
Sequence of High affinity nerve growth factor receptor (P04629 33-796 limits assumed): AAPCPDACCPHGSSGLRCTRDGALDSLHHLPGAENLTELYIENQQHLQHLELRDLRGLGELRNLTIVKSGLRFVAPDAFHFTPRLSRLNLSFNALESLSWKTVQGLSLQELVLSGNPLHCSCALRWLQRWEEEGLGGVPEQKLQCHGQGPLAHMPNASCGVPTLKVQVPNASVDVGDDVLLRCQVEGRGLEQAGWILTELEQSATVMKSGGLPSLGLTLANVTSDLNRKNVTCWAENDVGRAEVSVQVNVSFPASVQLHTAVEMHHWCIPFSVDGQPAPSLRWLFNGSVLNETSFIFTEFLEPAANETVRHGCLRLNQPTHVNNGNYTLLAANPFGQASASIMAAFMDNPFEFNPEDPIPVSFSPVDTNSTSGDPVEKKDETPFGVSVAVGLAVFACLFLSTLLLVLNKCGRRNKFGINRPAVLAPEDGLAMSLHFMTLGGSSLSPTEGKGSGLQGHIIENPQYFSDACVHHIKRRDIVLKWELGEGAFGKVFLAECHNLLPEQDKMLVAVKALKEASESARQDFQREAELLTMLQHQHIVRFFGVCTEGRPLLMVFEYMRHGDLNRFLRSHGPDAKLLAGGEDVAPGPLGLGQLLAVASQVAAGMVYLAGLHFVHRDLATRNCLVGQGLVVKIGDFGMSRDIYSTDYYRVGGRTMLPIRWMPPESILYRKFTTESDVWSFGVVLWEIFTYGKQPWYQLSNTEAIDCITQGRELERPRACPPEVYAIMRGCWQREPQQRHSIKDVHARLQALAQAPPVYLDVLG

[7] = target: Wee1-like protein kinase 2 (Homo sapiens) (UniProt P0C1S8); assay: Selectivity interaction (KinomeScan (DiscoverX)) EUB0001049a WEE2; conditions: at 1 µM
Sequence of Wee1-like protein kinase 2 (Homo sapiens) (P0C1S8 whole entry, looked up): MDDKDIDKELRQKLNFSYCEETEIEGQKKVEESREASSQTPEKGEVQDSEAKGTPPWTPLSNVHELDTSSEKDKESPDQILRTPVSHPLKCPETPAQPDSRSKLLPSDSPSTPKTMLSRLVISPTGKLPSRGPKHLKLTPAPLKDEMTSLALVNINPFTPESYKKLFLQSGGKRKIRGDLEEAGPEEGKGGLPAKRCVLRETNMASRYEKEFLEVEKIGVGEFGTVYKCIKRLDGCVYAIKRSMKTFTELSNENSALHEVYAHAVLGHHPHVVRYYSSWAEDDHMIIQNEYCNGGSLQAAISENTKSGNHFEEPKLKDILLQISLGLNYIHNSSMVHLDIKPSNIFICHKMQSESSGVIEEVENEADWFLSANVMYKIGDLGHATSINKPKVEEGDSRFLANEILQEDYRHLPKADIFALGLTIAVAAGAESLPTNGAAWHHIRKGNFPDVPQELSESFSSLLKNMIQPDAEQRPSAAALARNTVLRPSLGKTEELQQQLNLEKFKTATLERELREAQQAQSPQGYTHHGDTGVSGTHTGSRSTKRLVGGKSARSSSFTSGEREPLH

[8] = target: Calcium/calmodulin-dependent protein kinase type II subunit delta (Homo sapiens) (UniProt Q13557); assay: Selectivity interaction (ActivX KiNativ screen (ex vivo kinase selectivity in human PBMCs)) EUB0001619a CAMK2D; type: cell-based; conditions: PBMC, at 1 µM
Sequence of Calcium/calmodulin-dependent protein kinase type II subunit delta (Homo sapiens) (Q13557 whole entry): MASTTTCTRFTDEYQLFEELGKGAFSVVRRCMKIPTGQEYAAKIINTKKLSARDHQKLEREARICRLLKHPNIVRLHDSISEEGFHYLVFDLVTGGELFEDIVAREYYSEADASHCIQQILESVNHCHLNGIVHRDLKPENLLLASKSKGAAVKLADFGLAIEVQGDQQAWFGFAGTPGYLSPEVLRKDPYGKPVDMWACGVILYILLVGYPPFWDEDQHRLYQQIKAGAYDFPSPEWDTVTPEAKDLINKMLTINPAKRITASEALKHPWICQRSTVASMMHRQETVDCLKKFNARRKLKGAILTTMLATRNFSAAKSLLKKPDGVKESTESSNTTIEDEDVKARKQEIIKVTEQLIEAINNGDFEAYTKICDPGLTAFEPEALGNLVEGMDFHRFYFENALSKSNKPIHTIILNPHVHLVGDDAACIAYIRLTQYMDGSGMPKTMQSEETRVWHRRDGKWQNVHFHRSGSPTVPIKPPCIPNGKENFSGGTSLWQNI

[9] = target: Mitogen-activated protein kinase kinase kinase 20 (Homo sapiens) (UniProt Q9NYL2); assay: Selectivity interaction (KinomeScan (DiscoverX)) EUB0000607a MAP3K20; conditions: at 10 µM
Sequence of Mitogen-activated protein kinase kinase kinase 20 (Homo sapiens) (Q9NYL2 2-800 limits assumed): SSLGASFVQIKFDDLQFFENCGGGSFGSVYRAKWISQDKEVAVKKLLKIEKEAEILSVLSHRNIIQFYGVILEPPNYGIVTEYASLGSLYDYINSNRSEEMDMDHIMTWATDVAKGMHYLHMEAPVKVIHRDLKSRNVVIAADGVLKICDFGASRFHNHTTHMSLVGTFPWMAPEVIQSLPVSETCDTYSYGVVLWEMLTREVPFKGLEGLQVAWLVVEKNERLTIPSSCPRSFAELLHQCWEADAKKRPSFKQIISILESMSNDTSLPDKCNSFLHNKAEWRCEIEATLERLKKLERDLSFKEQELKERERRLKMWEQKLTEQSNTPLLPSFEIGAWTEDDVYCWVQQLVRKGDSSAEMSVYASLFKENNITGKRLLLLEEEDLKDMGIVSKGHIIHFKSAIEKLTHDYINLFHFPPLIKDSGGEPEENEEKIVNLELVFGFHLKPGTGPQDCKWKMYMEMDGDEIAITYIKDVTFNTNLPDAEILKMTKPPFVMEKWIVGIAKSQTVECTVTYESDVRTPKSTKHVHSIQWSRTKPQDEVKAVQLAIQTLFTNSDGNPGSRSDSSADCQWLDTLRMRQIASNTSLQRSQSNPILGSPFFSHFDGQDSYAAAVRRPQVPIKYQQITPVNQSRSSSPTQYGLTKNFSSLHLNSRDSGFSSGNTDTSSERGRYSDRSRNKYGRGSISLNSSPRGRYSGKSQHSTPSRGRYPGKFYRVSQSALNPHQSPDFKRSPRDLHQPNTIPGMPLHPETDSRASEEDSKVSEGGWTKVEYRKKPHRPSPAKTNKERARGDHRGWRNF

[10] = target: T4, Phosphatidylinositol 5-phosphate 4-kinase type-2 beta (Homo sapiens) (UniProt P78356); assay: Selectivity interaction (KinomeScan (DiscoverX)) EUB0000607a PIP4K2B; conditions: at 10 µM
T4 sequence (whole entry): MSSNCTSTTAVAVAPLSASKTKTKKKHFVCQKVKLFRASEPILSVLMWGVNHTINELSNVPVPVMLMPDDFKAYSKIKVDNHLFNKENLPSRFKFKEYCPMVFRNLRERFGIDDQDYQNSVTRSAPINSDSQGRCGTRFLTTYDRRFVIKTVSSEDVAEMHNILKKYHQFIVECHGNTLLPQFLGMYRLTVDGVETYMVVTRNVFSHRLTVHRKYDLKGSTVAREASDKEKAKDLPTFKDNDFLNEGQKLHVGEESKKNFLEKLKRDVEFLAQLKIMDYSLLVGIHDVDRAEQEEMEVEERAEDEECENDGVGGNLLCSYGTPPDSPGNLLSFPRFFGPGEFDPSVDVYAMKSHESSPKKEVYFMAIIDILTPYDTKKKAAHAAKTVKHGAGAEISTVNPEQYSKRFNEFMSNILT

[11] = target: Mitogen-activated protein kinase 6 (Homo sapiens) (UniProt Q16659); assay: Selectivity interaction (KinomeScan (DiscoverX)) EUB0000618a MAPK6; conditions: at 10 µM
Sequence of Mitogen-activated protein kinase 6 (Homo sapiens) (Q16659 whole entry): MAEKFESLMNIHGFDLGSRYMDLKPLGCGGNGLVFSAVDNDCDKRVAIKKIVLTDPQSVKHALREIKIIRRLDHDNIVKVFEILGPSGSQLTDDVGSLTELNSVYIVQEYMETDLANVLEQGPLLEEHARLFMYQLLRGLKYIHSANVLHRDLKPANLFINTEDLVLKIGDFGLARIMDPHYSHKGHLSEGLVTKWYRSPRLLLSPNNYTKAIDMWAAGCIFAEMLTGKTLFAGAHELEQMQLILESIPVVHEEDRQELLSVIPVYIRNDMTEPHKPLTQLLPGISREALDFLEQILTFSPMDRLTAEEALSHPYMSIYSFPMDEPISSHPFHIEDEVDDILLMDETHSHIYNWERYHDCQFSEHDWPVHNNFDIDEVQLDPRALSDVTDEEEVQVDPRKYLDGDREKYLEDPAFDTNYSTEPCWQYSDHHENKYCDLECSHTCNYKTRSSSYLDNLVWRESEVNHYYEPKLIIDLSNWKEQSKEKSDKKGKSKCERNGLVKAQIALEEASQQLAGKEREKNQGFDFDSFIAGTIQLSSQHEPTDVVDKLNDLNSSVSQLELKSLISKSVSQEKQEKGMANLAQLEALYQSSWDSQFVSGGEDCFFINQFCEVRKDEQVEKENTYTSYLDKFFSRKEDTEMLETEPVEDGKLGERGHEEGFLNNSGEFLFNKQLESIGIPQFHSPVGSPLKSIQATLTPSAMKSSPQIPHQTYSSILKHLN

[12] = target: Mitogen-activated protein kinase 8 (Homo sapiens, UniProt P45983); assay: Selectivity interaction (ActivX KiNativ screen (kinase selectivity in THP-1 cell lysates)) EUB0000639a MAPK8; type: subcellular; conditions: lysate
Sequence of Mitogen-activated protein kinase 8 (P45983 whole entry): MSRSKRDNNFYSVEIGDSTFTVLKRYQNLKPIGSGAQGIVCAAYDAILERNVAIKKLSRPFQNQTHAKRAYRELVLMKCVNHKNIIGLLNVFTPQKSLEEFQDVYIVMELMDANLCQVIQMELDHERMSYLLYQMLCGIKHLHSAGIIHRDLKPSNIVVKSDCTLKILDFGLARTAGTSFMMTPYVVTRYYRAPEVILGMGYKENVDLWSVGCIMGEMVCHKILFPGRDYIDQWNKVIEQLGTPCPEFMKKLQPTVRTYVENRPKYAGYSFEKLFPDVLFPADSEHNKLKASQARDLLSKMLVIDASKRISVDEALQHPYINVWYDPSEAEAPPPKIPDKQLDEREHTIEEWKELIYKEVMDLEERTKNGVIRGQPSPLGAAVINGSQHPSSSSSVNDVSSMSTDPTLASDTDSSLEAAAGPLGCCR

[13] = target: MAP/microtubule affinity-regulating kinase 3 (Homo sapiens) (UniProt P27448); assay: Selectivity interaction (ActivX KiNativ screen (kinase selectivity in THP-1 cell lysates)) EUB0000639a MARK3; type: subcellular; conditions: lysate, at 0.01 µM
Sequence of MAP/microtubule affinity-regulating kinase 3 (Homo sapiens) (P27448 whole entry, looked up): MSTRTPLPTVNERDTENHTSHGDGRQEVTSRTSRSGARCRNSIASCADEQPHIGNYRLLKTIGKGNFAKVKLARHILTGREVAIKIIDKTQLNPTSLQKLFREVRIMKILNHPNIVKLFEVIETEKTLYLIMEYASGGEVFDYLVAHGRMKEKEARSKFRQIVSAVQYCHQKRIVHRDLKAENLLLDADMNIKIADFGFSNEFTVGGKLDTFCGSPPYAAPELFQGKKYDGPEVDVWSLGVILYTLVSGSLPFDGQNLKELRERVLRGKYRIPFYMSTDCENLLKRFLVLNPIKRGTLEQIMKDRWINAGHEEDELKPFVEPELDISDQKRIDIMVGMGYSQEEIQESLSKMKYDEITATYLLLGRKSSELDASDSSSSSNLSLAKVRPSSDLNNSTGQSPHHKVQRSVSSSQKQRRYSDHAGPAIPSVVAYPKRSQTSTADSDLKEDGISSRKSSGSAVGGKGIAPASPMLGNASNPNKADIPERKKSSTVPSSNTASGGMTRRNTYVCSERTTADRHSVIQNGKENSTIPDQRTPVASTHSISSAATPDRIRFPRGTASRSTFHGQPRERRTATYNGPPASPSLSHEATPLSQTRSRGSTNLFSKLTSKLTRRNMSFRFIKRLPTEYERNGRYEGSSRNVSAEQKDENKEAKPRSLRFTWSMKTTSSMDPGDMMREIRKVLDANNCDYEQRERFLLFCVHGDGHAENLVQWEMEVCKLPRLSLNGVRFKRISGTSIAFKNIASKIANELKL

[14] = target: Platelet-derived growth factor receptor alpha (Homo sapiens, UniProt P16234); conditions: at 10 µM

Cn1cc(-n2cnc3c(NCc4nc5cc(Cl)c(Cl)cc5[nH]4)nc(N4CCOCC4)nc32)cn1
% of inhibition [1]: -25.4% | % of control [2]: 2.85%

Cc1cc([C@@H](C)Nc2ccccc2C(=O)O)c2nc(N3CCOCC3)cc(=O)n2c1 [AZD-6482]
% of control [3]: 100% | % of control [4]: 90%

COc1cc(Nc2nc(C)cc(-c3cnn4nc(OC)ccc34)n2)cc(C(F)(F)F)c1
% of control [5]: 73% | % of control [6]: 100% | % of control [7]: 100%

N#Cc1cccc(-c2c[nH]c3ncnc(N4CCOCC4)c23)c1
% of inhibition [8]: -38%

CNC(=O)Nc1ccc(-c2nc(N3CC4CCC(C3)O4)c3cnn(C4CCC5(CC4)OCCO5)c3n2)cc1
% of control [9]: 77% | % of control [10]: 100%

O[C@H]1CC[C@H](Nc2ncc3nc(Nc4c(F)cc(F)cc4F)n([C@H]4CCOC4)c3n2)CC1
% of control [11]: 24%

CC[C@@H]1[C@H](F)C(=O)N[C@@H]1COc1nccc2cc(C(N)=O)c(OC)cc12 [ZIMLOVISERTIB]
% of inhibition ([12]; at 0.01 µM): 13.3% | % of inhibition ([12]; at 0.04 µM): -1.4% | % of inhibition ([12]; at 0.2 µM): 1.6% | % of inhibition ([12]; at 1 µM): 27.7% | % of inhibition ([12]; at 5 µM): 57.5% | % of inhibition [13]: 10.4%

CCN(CC)CCCCNc1ncc2cc(-c3cc(OC)cc(OC)c3)c(NC(=O)NC(C)(C)C)nc2n1
% of control [14]: 100%
